Reference: ChEMBL document CHEMBL3507680, “University of Dundee, Gates Library screen for HepG2 cell viability”

Experiment: Human HepG2 cell viability assay in 384 well format
Format: toxicity, cell-based
Set-up: dose 125 nL, time 70.5 hour; concentration not given beside the values
Details: HepG2 cells, read-out: Inhibition

Row | SMILES | cytotoxicity at 70.5 h [%]
1 | COC(=O)c1ccc2c(-c3ccnc(NCCO)n3)c[nH]c2c1 | -1.71
2 | COc1cc(-c2cc(=O)[nH]cn2)cc(OC)c1OC | -5.45
3 | COCCN1CC(=O)c2sc(NC(C)C)nc2C1 | 2.05
4 | Cc1ccc2c(c1)[C@@H](CC(=O)N1CCOCC1)CCO2 | 0.54
5 | OCCNc1nccc(-c2c[nH]nc2-c2ccncc2)n1 | -2.75
6 | OCCNc1nccc(-c2c[nH]nc2-c2cccnc2)n1 | -3.73
7 | Cc1[nH]c2ccccc2c1-c1ccnc(N[C@@H](C)CO)n1 | -3.05
8 | NC(=O)[C@H]1CCCN(c2nccc(-c3ccncc3)n2)C1 | -0.804
9 | CNc1nccc(-c2cnc3sc(C)c(C)n3c2=O)n1 | 0.0839
10 | O=c1[nH][nH]cc1-c1ccnc(NCCc2cccc(O)c2)n1 | -7.19
11 | Nc1ncc(-c2cccc(NC(=O)[C@@H]3CCCCN3)c2)cn1 | -4.27
12 | CC[C@@H](C)[C@@H](N)C(=O)Nc1cccc(-c2cnc(N)nc2)c1 | -6
13 | CNc1ncc(-c2ccnn2C2CCN(C(C)=O)CC2)cn1 | -7.63
14 | CN(C)c1nccc(NCc2cc(-c3cccs3)n[nH]2)n1 | 4.36
15 | CCCN(C)c1ncc2c(n1)N(C)CCN(CC1CC1)C2=O | -1.69
16 | O=c1[nH]c(-c2ccncc2)ncc1-c1ccnc(NC2CC2)n1 | 23.6
17 | COCC(=O)NCC[C@H]1CC(C)(C)Oc2ccc(OC)cc21 | -2.28
18 | Cc1csc2ncc(-c3ccnc(N4CCCC4)n3)c(=O)n12 | -2.62
19 | CC[C@H](C)Nc1ncc(-c2cccc(NC(=O)CNC)c2)cn1 | -0.898
20 | O=C1CN(CC2CC2)Cc2nc(NCc3ccccc3)sc21 | 20.7
21 | COc1ccc(C(=O)NC2CC2)c(OC2CCN(C(C)CO)CC2)c1 (centres undefined) | 0.736
22 | CCC(=O)c1ccc(OCC(=O)NCC2CC(CC)=NO2)cc1 (centres undefined) | -1.34

Row | SMILES | cytotoxicity at 70.5 h [%]
23 | COCCN(Cc1ccc(C)cc1)Cc1c[nH]cn1 | -7.56
24 | CC(C)=CCC1(CO)CCCN(S(C)(=O)=O)C1 (centres undefined) | 1.79
25 | CN1C(=O)[C@H]2CC[C@@H]1CN(S(=O)(=O)c1ccc(Cl)cc1Cl)C2 | -10.4
26 | O=C(NCCO)c1coc(Cn2cnc3ccccc32)n1 | -1.94
27 | COCCN(Cc1nccs1)C(=O)c1cc(-c2ccc(C)s2)n[nH]1 | -5.54
28 | Clc1cc(NCc2ccncc2)nc2[nH]ccc12 | 13
29 | O=C(CCc1nc(Cl)n[nH]1)N1C[C@@H](CN2CCCCC2)[C@@H](CO)C1 | -6.93
30 | O=C(CCN1C[C@H]2CC[C@@H]1CN(c1ncccn1)C2)NCc1ccco1 | 27.5
31 | CC(O)C1CCN(C(=O)Nc2nc(-c3ccccc3)ns2)CC1 (centres undefined) | 4.55
32 | COc1cc2[nH]c(=O)c(CN3CCC[C@@H]3C(N)=O)cc2c(OC)c1OC | 23.4
33 | CS(=O)(=O)c1ncc(CN2CCCC(C(N)=O)C2)n1CC1CCCCC1 (centres undefined) | -1.8
34 | COc1ccnc(N2Cc3cnc(C(C)(C)C)nc3C2)n1 | 0.551
35 | CC(=O)N1CCC(Oc2ccc(Cl)cc2C(=O)N2CCCO2)CC1 | -3.91
36 | CCOc1ccc(CN2CC[C@](C)(O)C(C)(C)C2)cn1 | -1.38
37 | CCCc1cc(CNC2CCN(c3cc(C(C)C)nc(C)n3)CC2)on1 | -4.25
38 | CCCN1CCC(CC(=O)N2CC(C)(C)[C@@](C)(O)C2)CC1 | -2.11
39 | Cn1ccnc1CN1CCN(Cc2ccncc2)[C@@H]2CS(=O)(=O)C[C@@H]21 | -13.6
40 | CCc1ncc(CN2CCCC3(CCC(=O)N(CCC(C)C)C3)C2)cn1 (centres undefined) | 1.46
41 | Cc1cccc(CN(Cc2ccccc2)Cc2nccs2)n1 | -11.1
42 | CCc1nnsc1-c1nc(C(C)C)nn1-c1ccc2c(c1)OCO2 | -5.86
43 | COCC(=O)N1CCN(S(=O)(=O)c2ccccc2)[C@H]2CS(=O)(=O)C[C@H]21 | -7.41
44 | Cc1ccccc1C1CCN(CCNC(=O)CS(C)(=O)=O)C1 (centres undefined) | -4.32

Row | SMILES | cytotoxicity at 70.5 h [%]
45 | CC(C)c1cc(C(=O)N2C[C@H]3CC[C@@H]2CN(Cc2cscn2)C3)no1 | 15.2
46 | O=C(O)c1cn(CC2CCCN(c3nc4ccccc4s3)C2)nn1 (centres undefined) | 20.3
47 | CC(C)(O)CCc1cccc(C(=O)NCC2CN(S(C)(=O)=O)CCO2)c1 (centres undefined) | 10.1
48 | Cc1cccc(C(=O)N2CCCC(c3nccn3Cc3cscn3)C2)n1 (centres undefined) | -5.05
49 | Cc1ncccc1Oc1ncnc(N2CCC(O)(CO)CC2)c1C | -6.21
50 | NC1(C(=O)NCC2CCCN(Cc3cccc4nonc34)C2)CCC1 (centres undefined) | -3.66
51 | CC(C)=CCN1CCN(C(=O)CSc2ccccn2)[C@H]2CS(=O)(=O)C[C@H]21 | -8.43
52 | Cc1nc(C(C)C)sc1C(=O)NCCSc1ccccn1 | -11.3
53 | O=C1N(CCc2ccccc2)CCCC1(O)CNCc1ccc(F)cc1 (centres undefined) | 6.09
54 | CC(=O)N1C[C@H]2CNC[C@@]2(C(=O)NCCNc2ccncc2C)C1 | -0.521
55 | CC(C)c1cc(N2CCC3(CCN(C)C3)C2)ncn1 (centres undefined) | 3.25
56 | Cc1cc(C)n(CC(C)NC2CCN(Cc3cccc(O)c3)CC2)n1 (centres undefined) | -7.84
57 | COc1ccccc1OC1(C(=O)O)CCN(c2ncnc(C)c2C)CC1 | 17.6
58 | COc1cccc(CN2CCCCC2CN2CCOCC2)c1F (centres undefined) | -2.15
59 | Cc1ccccc1OCC(=O)N1CCOC2(CNCCOC2)C1 (centres undefined) | -5.6
60 | Cc1ccccc1OC1CCN(C(=O)c2c[nH]c(=O)[nH]c2=O)CC1 | -0.618
61 | CCN1CC(CN(C)Cc2nc(-c3ccoc3)oc2C)CC1=O (centres undefined) | 0.925
62 | COCCn1cncc1CN1CCCC(C)(c2ccccc2)C1 (centres undefined) | 18
63 | COc1ccc(F)cc1NC(=O)NCC1(C)COC1 | 0.338
64 | CCC(C)N1CCC(Oc2ccc(C(=O)NCCN(C)C)cc2Cl)CC1 (centres undefined) | -5.39
65 | COC[C@@]12CC[C@@H](N3CCOCC3)C[C@H]1CCN(c1ncccc1F)C2 | -6.47
66 | Cc1cc(CN2CCN(CC3CC3)[C@@H]3CS(=O)(=O)C[C@@H]32)cc(C)c1O | -2.43

Row | SMILES | cytotoxicity at 70.5 h [%]
67 | O=c1cc(N2CCCCC2)cnn1CC(O)C(F)(F)F (centres undefined) | -8.52
68 | Cc1ncsc1CCN(C)Cc1ccc(CO)o1 | -5.5
69 | CSCCc1c(-c2ccccc2)ncn1[C@H]1C[C@@H](C(=O)O)N(C)C1 | -13.3
70 | CNc1ncc(CN(C)Cc2cc(O)c3cccc(Cl)c3n2)cn1 | -15.2
71 | CSc1ccccc1CN1C[C@H]2CC[C@@H]1CN(Cc1[nH]cnc1C)C2 | 17.6
72 | Cc1cc(C(=O)N2CCC3(CCC(=O)N(CC(N)=O)C3)CC2)ccc1O | -14
73 | CS(=O)(=O)NCC1CCN(Cc2cc3ccccc3[nH]c2=O)C1 (centres undefined) | -3.86
74 | O=C1CC2(CCCC2)CC(=O)N1CCn1cnnc1 | -8.05
75 | COCCN(CC1CCCN(C2Cc3ccccc3C2)C1)C(=O)COC (centres undefined) | -7.6
76 | Cc1cccc(CC(=O)N2CCCC(N(C)CCCN(C)C)C2)c1 (centres undefined) | -4.84
77 | COCCCNc1ncnc2c1CCN(C(=O)CC1C=CCC1)CC2 (centres undefined) | -5.04
78 | Cc1cccn2c(CNC(C)CCc3ccc(O)cc3)cnc12 (centres undefined) | -7.78
79 | CC(C)[C@H]1CN(c2ccncc2)C[C@@H]1NC(=O)C1(C#N)CCOCC1 | -8.3
80 | O=C(O)C1(n2ccc(-c3ccco3)n2)CCN(Cc2cccs2)CC1 | 17.7
81 | O=C(c1cc(=O)[nH][nH]1)N1CCCC2(CCC(=O)N(C3CCCC3)C2)C1 (centres undefined) | -5.45
82 | CC(C)c1nccn1CCCNC(=O)c1ccc(-c2cn[nH]c2)nc1 | -3.19
83 | Cc1cccc(CN2CCN(C(=O)N(C)C)[C@@H]3CS(=O)(=O)C[C@@H]32)n1 | 2.11
84 | O=C1NC(C(=O)NCc2cccnc2Oc2ccccc2F)CO1 (centres undefined) | -18.5
85 | Cc1noc(CN(C)CC2CCCN(CCc3ccc(Cl)cc3)C2)n1 (centres undefined) | -11.4
86 | COCCc1noc(-c2cn(Cc3ccccc3C)nn2)n1 | -4.41
87 | CC(C)CC(NC(=O)c1cc(-c2cccn2C)n[nH]1)c1ncnn1C (centres undefined) | -1.67
88 | O=C(C1CCC1)N1C[C@@H]2CC[C@H](C1)N(S(=O)(=O)c1ccccc1)C2 | -8.37

Row | SMILES | cytotoxicity at 70.5 h [%]
89 | CC(C)NC(=O)Nc1ccc(-c2nc3c([nH]2)CCNC3)cc1 | -15.8
90 | CNc1nccc(-c2cn(C)nc2C)n1 | 1.94
91 | CCOc1cccc(CN(Cc2cnn(C)c2)CC(C)C)c1O | 7.39
92 | O=c1cc(N2CCCC2)cnn1Cc1noc(C2CCCO2)n1 (centres undefined) | 7.8
93 | CNS(=O)(=O)c1ccc(CN2CCCN(CC(C)C)CC2)cc1 | -0.0493
94 | COc1ccc(N2CCN(C[C@@H](C)CO)CC2=O)cc1 | -4.04
95 | Cc1ccc(NC(=O)[C@H]2C[C@H](C(=O)O)CN(CC3CC3)C2)cn1 | -21.8
96 | CCNc1ncc(C(=O)NCc2csc(-c3ncccn3)n2)cn1 | 3.46
97 | COc1ccc(C(=O)N2C[C@H]3CC[C@@H]2CN(C)C3)cc1Cl | 47.4
98 | CN(C)c1nc2c(c(N(C)C)n1)CCN(C(=O)CN1CCC(O)CC1)C2 | -7.75
99 | Cc1nn(CCO)cc1CN1CCCC1c1nc2c(C)cccc2[nH]1 (centres undefined) | -2.76
100 | O=C(c1ccc(-c2cc[nH]n2)cc1)N1CC[C@H](CO)[C@H](O)C1 | 0.543
101 | COc1nc(C)c(C(=O)N2CCc3[nH]nc(Cc4ccccc4)c3C2)s1 | -1.57
102 | COCCCN1CC2(CCC1=O)CCN(Cc1cc(C)no1)CC2 | 12.2
103 | Cc1cccc(CN2C[C@@H]3CC[C@H](C2)N(Cc2c(C)noc2C)C3=O)n1 | -3.2
104 | CN(C)CCNc1ccc(-c2nc(COc3ccccc3)no2)cn1 | 3.62
105 | Cn1c(CO)nnc1CC1CCN(Cc2ccc(C#N)cc2)CC1 | -1.35
106 | CC1(C)CNC(=O)c2nc(C3CCCN(C(=O)C4CC4)C3)[nH]c2C1 (centres undefined) | -7.49
107 | Cc1ccc(C(C(=O)N(C)CCc2cn[nH]c2)N(C)C)cc1 (centres undefined) | -8.45
108 | CCc1nccn1CCCNC(=O)CN1CCN(c2ncccn2)CC1 | -7.13
109 | COC1CCCOC12CCN(C(=O)NCCc1cccs1)CC2 (centres undefined) | -0.941
